Reference: patent publication US20230089073A1 (Carmot Therapeutics, Inc., priority 2021, published 2023)
pEC50: −log10 of the molar value. Like-named read-outs stand apart in the source and are kept apart here.

Biological target: T1, human GLP-1 receptor (Homo sapiens, UniProt P43220)
T1 construct: expressed in transfected cells
Assay: GLP-1R cAMP Assay
Assay type: cell-based
Outline: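 CHO cells stably overexpressing human GLP-1R, 10,000 cells/well, treated with compound in 20-point dose response in triplicate for 30 min. cAMP accumulation read by enzyme-complementation luminescence after lysis and overnight incubation; dose-response curves fitted.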

[1] = cAMP accumulation in CHO cells stably overexpressing the human GLP-1 receptor, 30 min treatment, HitHunter cAMP kit, read-out: EC50

T1 sequence (P43220 24-463): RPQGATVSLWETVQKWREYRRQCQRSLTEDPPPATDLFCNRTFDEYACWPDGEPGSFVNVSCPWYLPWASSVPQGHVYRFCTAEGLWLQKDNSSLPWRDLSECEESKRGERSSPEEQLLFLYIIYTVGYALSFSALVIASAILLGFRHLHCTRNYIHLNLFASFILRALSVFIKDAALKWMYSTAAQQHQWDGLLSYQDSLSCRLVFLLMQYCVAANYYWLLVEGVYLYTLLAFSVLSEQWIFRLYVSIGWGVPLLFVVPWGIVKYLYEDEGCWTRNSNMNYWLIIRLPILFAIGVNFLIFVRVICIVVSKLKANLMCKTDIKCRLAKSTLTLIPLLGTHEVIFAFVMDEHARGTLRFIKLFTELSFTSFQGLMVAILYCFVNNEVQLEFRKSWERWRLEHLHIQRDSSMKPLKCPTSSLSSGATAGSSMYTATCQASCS

| SMILES | pEC50 [1] | pEC50 |
| --- | --- | --- |
| O=C(O)c1ccc2nc(CN3CCC(Oc4ccnc(COc5ccc(Cl)cc5F)c4)CC3)n(CC3(CF)CC3)c2c1 [Compound 321] | > 7.30 |  |
| O=C(O)c1ccc2nc(CN3CCC(Oc4ccnc(COc5ccc(F)cc5C(F)(F)F)c4)CC3)n(C[C@@H]3CCO3)c2c1 [Compound 322] | > 7.30 |  |
| O=C(O)c1cc(F)c2nc(CN3CCC(Oc4ccnc(COc5ccc(Cl)cc5F)n4)CC3)n(CC3(CF)CC3)c2c1 [Compound 324] | > 7.30 |  |
| N#CCC1(Cn2c(CN3CCC(Oc4ccnc(COc5ccc(F)cc5Cl)n4)CC3)nc3ccc(C(=O)O)cc32)CC1 [Compound 325] | > 7.30 |  |
| O=C(O)c1cc(F)c2nc(CN3CCC(Oc4ccnc(COc5ccc(F)cc5Cl)n4)CC3)n(CC3(CF)CC3)c2c1 [Compound 327] | > 7.30 |  |
| N#Cc1ccc(OCc2nccc(OC3CCN(Cc4nc5c(F)cc(C(=O)O)cc5n4C[C@@H]4CCO4)CC3)n2)c(F)c1 [Compound 328] | > 7.30 |  |
| O=C(O)c1cc(F)c2nc(CN3CCC(Oc4ccnc(COc5ccc(F)cc5Cl)n4)CC3)n(C[C@@H]3CCO3)c2c1 [Compound 329] | > 7.30 |  |
| N#CCC1(Cn2c(CN3CCC(Oc4ccnc(COc5ccc(C#N)cc5F)n4)CC3)nc3ccc(C(=O)O)cc32)CC1 [Compound 331] | > 7.30 |  |
| O=C(O)c1ccc2nc(CN3CCC(Oc4ccnc(COc5ccc(Cl)cc5F)c4)CC3)n(CC34CC(CO3)C4)c2c1 [Compound 333] | > 7.30 |  |
| N#CCC1(Cn2c(CN3CCC(Oc4ccnc(COc5ccc(Cl)cc5F)c4)CC3)nc3ccc(C(=O)O)cc32)CC1 [Compound 337] | > 7.30 |  |
| N#CCC1(Cn2c(CN3CCC(Oc4ccnc(COc5ccc(C#N)cc5F)n4)CC3)nc3c(F)cc(C(=O)O)cc32)CC1 [Compound 339] | > 7.30 |  |
| N#CCC1(Cn2c(CN3CCC(Oc4ccnc(COc5ccc(Cl)cc5Cl)n4)CC3)nc3ccc(C(=O)O)cc32)CC1 [Compound 340] | > 7.30 |  |
| N#CCC1(Cn2c(CN3CCC(Oc4ccnc(COc5ccc(Cl)cc5Cl)n4)CC3)nc3c(F)cc(C(=O)O)cc32)CC1 [Compound 341] | > 7.30 |  |
| O=C(O)c1ccc2nc(CN3CCC(Oc4ccnc(COc5ccc(F)cc5C(F)(F)F)n4)CC3)n(C[C@@H]3CCO3)c2c1 [Compound 342] | > 7.30 |  |
| N#Cc1ccc(OCc2nccc(OC3CCN(Cc4nc5ccc(C(=O)O)cc5n4CC4(CF)CC4)CC3)n2)c(F)c1 [Compound 343] | > 7.30 |  |
| COCCn1c(CN2CCC(Oc3ccnc(COc4ccc(Cl)cc4F)c3)CC2)nc2c(F)cc(C(=O)O)cc21 [Compound 344] | > 7.30 |  |

| SMILES | pEC50 [1] | pEC50 |
| --- | --- | --- |
| O=C(O)c1ccc2nc(CN3CCC(Oc4ccnc(COc5ccc(Cl)cc5F)c4)CC3)n(CC3(O)CC3)c2c1 [Compound 345] | > 7.30 |  |
| N#CCC1(Cn2c(CN3CCC(Oc4ccnc(COc5ccc(F)cc5C#N)n4)CC3)nc3ccc(C(=O)O)cc32)CC1 [Compound 348] | > 7.30 |  |
| N#CCC1(Cn2c(CN3CCC(Oc4ccnc(COc5ccc(F)cc5C#N)n4)CC3)nc3c(F)cc(C(=O)O)cc32)CC1 [Compound 349] | > 7.30 |  |
| O=C(O)c1ccc2nc(CN3CCC(Oc4ccnc(COc5ccc(Cl)cc5)c4)CC3)n(C[C@@H]3CCO3)c2c1 [Compound 352] | > 7.30 |  |
| C[C@H]1C[C@@H](Oc2ccnc(COc3ccc(F)cc3C#N)n2)CCN1Cc1nc2ccc(C(=O)O)cc2n1CC1(CC#N)CC1 [Compound 353] | > 7.30 |  |
| COCCC1(Cn2c(CN3CCC(Oc4ccnc(COc5ccc(Cl)cc5F)c4)CC3)nc3ccc(C(=O)O)cc32)CC1 [Compound 354] | > 7.30 |  |
| O=C(O)c1ccc2nc(CN3CCC(Oc4ccnc(COc5ccc(F)cc5C(F)F)c4)CC3)n(C[C@@H]3CCO3)c2c1 [Compound 357] | > 7.30 |  |
| N#Cc1ccc(OCc2cc(OC3CCN(Cc4nc5c(F)cc(C(=O)O)cc5n4C[C@@H]4CCO4)CC3)ccn2)c(Cl)c1 [Compound 359] | > 7.30 |  |
| N#CCC1(Cn2c(CN3CCC(Oc4ccnc(COc5ccc(C(F)F)cc5F)c4)CC3)nc3ccc(C(=O)O)cc32)CC1 [Compound 362] | > 7.30 |  |
| N#Cc1ccc(OCc2nccc(OC3CCN(Cc4nc5ccc(C(=O)O)cc5n4C[C@@H]4CCO4)CC3)n2)c(Cl)c1 [Compound 369] | > 7.30 |  |
| O=C(O)c1ccc2nc(CN3CCC(Oc4ccnc(COc5ccc(F)cc5Cl)n4)CC3)n(C[C@@H]3CCO3)c2n1 [Compound 370] | > 7.30 |  |
| O=C(O)c1ccc2nc(CN3CCC(Oc4ccnc(COc5ccc(C(F)(F)F)cc5F)n4)CC3)n(C[C@@H]3CCO3)c2n1 [Compound 371] | > 7.30 |  |
| N#Cc1ccc(OCc2nccc(OC3CCN(Cc4nc5ccc(C(=O)O)nc5n4C[C@@H]4CCO4)CC3)n2)c(F)c1 [Compound 373] | > 7.30 |  |
| C[C@H]1C[C@@H](Oc2ccnc(COc3ccc(C(F)(F)F)cc3F)n2)CCN1Cc1nc2ccc(C(=O)O)nc2n1C[C@@H]1CCO1 [Compound 377] | > 7.30 |  |
| O=C(O)c1ccc2nc(CN3CCC(Oc4ccnc(COc5ccc(Cl)cc5F)c4)CC3)n(C[C@@H]3CCO3)c2n1 [Compound 378] | > 7.30 |  |

Next, values leading:

| pEC50 [1] | pEC50 | SMILES |
| --- | --- | --- |
| > 7.30 |  | N#Cc1cc(F)ccc1OCc1cccc(OC2CCN(Cc3nc4c(F)cc(C(=O)O)cc4n3C[C@@H]3CCO3)CC2)c1 [Compound 317] |
| > 7.30 |  | C[C@H]1C[C@@H](Oc2cccc(COc3ccc(C#N)cc3F)c2)CCN1Cc1nc2ccc(C(=O)O)cc2n1C[C@@H]1CCO1 [Compound 319] |
| > 7.30 |  | C[C@H]1C[C@@H](Oc2cccc(COc3ccc(C#N)cc3F)c2)CCN1Cc1nc2c(F)cc(C(=O)O)cc2n1C[C@@H]1CCO1 [Compound 320] |
| > 7.30 |  | C[C@H]1C[C@@H](Oc2ccnc(COc3ccc(C#N)cc3F)n2)CCN1Cc1nc2c(F)cc(C(=O)O)cc2n1C[C@@H]1CCO1 [Compound 323] |
| > 7.30 |  | N#Cc1ccc(OCc2nc(OC3CCN(Cc4nc5ccc(C(=O)O)cc5n4C[C@@H]4CCO4)CC3)ccc2F)c(F)c1 [Compound 347] |
| > 7.30 |  | O=C(O)c1ccc2nc(CN3CCC(Oc4ccnc(COc5ccc(C(F)(F)F)cc5F)c4)CC3)n(C[C@@H]3CCO3)c2c1 [Compound 356] |
| > 7.30 |  | N#Cc1ccc(OCc2cc(OC3CCN(Cc4nc5ccc(C(=O)O)cc5n4C[C@@H]4CCO4)CC3)ccn2)c(Cl)c1 [Compound 358] |
|  | > 7.30 | C[C@H]1C[C@@H](Oc2ccnc(COc3ccc(C#N)cc3F)c2)CCN1Cc1nc2ccc(C(=O)O)cc2n1C[C@@H]1CCO1 [Compound 363] |
| > 7.30 |  | N#Cc1ccc(OCc2cc(OC3CCN(Cc4nc5c(F)cc(C(=O)O)cc5n4C[C@@H]4CCO4)CC3)ccn2)c(F)c1 [Compound 365] |
| > 7.30 |  | C[C@H]1C[C@@H](Oc2ccnc(COc3ccc(C#N)cc3Cl)c2)CCN1Cc1nc2ccc(C(=O)O)cc2n1C[C@@H]1CCO1 [Compound 366] |
| > 7.30 |  | N#Cc1ccc(OCc2ncc(F)c(OC3CCN(Cc4nc5ccc(C(=O)O)cc5n4C[C@@H]4CCO4)CC3)n2)c(F)c1 [Compound 374] |
| > 7.30 |  | C[C@H]1C[C@@H](Oc2ccnc(COc3ccc(C#N)cc3F)n2)CCN1Cc1nc2ccc(C(=O)O)nc2n1C[C@@H]1CCO1 [Compound 375] |
| > 7.30 |  | C[C@H]1C[C@@H](Oc2ccnc(COc3ccc(C(F)(F)F)cc3F)n2)CCN1Cc1nc2ccc(C(=O)O)cc2n1C[C@@H]1CCO1 [Compound 376] |
| > 7.30 |  | N#Cc1ccc(OCc2cc(OC3CCN(Cc4nc5ccc(C(=O)O)nc5n4C[C@@H]4CCO4)CC3)ccn2)c(F)c1 [Compound 379] |
